Measured values as given in PMC11091888, “Evaluation of Fusobacterium nucleatum Enoyl-ACP Reductase (FabK) as a Narrow-Spectrum Drug Target” (ACS Infectious Diseases, 2024).
In brackets after ≈: the same amount, converted by molar mass. Several values for one entry are separate records, joined by “and”; a condition that tells them apart may be missing. Equal values may be shown once. Entries after “also recorded” stand apart in the source; their conditions may differ. Read-outs that look alike come from different tables or passages of the source.

Key:
E. faecalis FA2–2ΔfabK = test: MIC against E. faecalis FA2-2 fabI+ (ΔfabK, possesses only FabI); assay type: cell-based, Enterococcus faecalis
Procedure: (§1) Compounds were twofold serially diluted (100–0.2 μg/mL) across a 96-well plate in 100 μL of media used for the specific organism (Table S4). For anaerobes, plates were incubated anaerobically at 37 °C for 1 h and then inoculated with approximately 10^5 to 10^6 CFU/well. Plates were incubated at 37 °C for up to 48 h, and MICs were read by visual inspection.

S. pyogenes 19615 = test: Growth in FAS-II inhibitor with or without exogenous fatty acids; assay type: cell-based, Streptococcus pyogenes; conditions: fatty acid mixture of Table S2
Procedure: (§2) To plates containing twofold serial dilutions of compounds, exponential phase cultures were added to a final OD600nm of 0.1. Plates containing F. nucleatum in Columbia broth were incubated at 37 °C inside of a Tecan Infinite 200 Pro, which was inside an anaerobic chamber; growth kinetics for Streptococcus spp. in brain heart infusion broth were done aerobically in the same Tecan instrument.

FnFabK = FnFabK (Fusobacterium nucleatum subsp. nucleatum, UniProt Q8RGV3); test: biochemical
Sequence of FnFabK (Q8RGV3 entry or part of it): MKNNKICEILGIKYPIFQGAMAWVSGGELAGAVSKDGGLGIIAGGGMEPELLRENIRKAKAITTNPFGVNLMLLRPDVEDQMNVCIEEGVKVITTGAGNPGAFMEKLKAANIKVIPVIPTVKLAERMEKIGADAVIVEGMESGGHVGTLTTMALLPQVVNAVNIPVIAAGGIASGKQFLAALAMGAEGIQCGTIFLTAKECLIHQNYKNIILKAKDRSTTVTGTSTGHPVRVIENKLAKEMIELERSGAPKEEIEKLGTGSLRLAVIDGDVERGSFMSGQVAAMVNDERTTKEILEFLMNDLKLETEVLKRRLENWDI
Procedure: Incubation lasted for a total of 10 min before the addition of crotonyl-CoA substrate, and the reaction was initiated by the addition of NADH for a final assay volume of 100 μL. The oxidation of NADH to NAD+ was measured by tracking fluorescence (340 nm/460 nm) with a Biotek Synergy H1 microplate reader in 15 s intervals for a total of 10 min to monitor the rate of reaction. The reaction was conducted in Greiner Bio-One 384-well μClear Bottom Polystyrene Microplates. […] Measurements were conducted in triplicate, and IC50’s were calculated via GraphPad Prism 9.1.2 using four-parameter logistic (Hill) curve analysis using equation Y = bottom + (top – bottom)/[1 + 10 (Log IC50 – X) × Hill Slope], where X is the logarithm of the dose and Y is the response. The assay concentrations of the cofactor, NADH, and substrate, crotonyl-CoA, were also determined via GraphPad Prism 9.1.2 using the substrate inhibition model to determine Km(app).

E. faecalis FA2–2 = test: MIC against wild-type E. faecalis FA2-2 (FabI and FabK); assay type: cell-based, Enterococcus faecalis; conditions: E. faecalis FA2-2, possesses both FabI and FabK
Procedure: as §1

[1] = test system: F. nucleatum 23726 overexpression strains; test: MIC against F. nucleatum 23726 transformed with empty vector, fabK or fabX under ATc-inducible promoter; assay type: cell-based, Fusobacterium nucleatum; conditions: for MIC: Fusobacterium nucleatum
Procedure: (§3) The transformation of F. nucleatum 23726 was performed via electroporation as previously described,[41] except that Columbia broth was used. (i) Antisense vector: F. nucleatum gene silencing vector, pHFK2, was developed by inserting the ATc inducible paired-termini antisense sequences from the clostridial vector pMSPT into pCWU6, a F. nucleatum vector.[56] pCWU6 was amplified by PCR (CloneAmp polymerase) and recombined with the BamHI and KpnI fragments of pMSPT containing the Tet promoter and paired-termini sequences.[26] Antisense nucleotides targeting either 50 bp upstream and downstream of the fabK start codon (FabKAS1) or 25 bp upstream and 75 bp downstream (FabKAS2) were cloned into SphI and XhoI restriction sites of pHFK2. (ii) Complementation vectors: these were generated by PCR amplifying the fabK promoter and gene and introducing KpnI and HindIII restriction sites at 5′ and 3′ ends, respectively. Purified PCR amplicons were inserted into the KpnI and HindIII sites of pCWU6. (iii) Overexpression vectors: the corresponding gene, fabK or fabX, was amplified via PCR, introducing HindIII or SacI restriction sites to the 5′ end, respectively. BamHI restriction sites were introduced to the 3′ end of both. Purified PCR amplicons were inserted into the respective restriction sites of pHFK2. (iv) Allelic exchange vector: vector, pCWU8-FabK, was generated using a previously described protocol,[41],[56] whereby 1-kb regions upstream and downstream of fabK were cloned into the suicide vector pCWU8 using a Gibson Assembly Cloning Kit (New England Biolabs). The recombinant vector was transformed into strain F. nucleatum 23726ΔgalK, and successful integrants were collected that were resistant to thiamphenicol (5 μg/mL). Since the suicide vector expresses GalK, which is toxic in the presence of 2-deoxy-D-galactose (2-DG), the compound 2-DG (0.25% w/v) was added to counter-select for mutants that underwent a second homologous recombination. Ten resulting colonies were then tested for deletion of fabK via PCR, using primers in Table S7. The experiment was independently performed twice for a total of 20 colonies screened for fabK deletion. All experiments were done anaerobically at 37 °C in tryptic soy broth supplemented with 1% w/v peptone and 0.25% w/v autoclaved L-cysteine hydrochloride (TSPC) or TSPC agar with thiamphenicol or 2-DG.
as §1

F. nucleatum 23726 = test: Growth in FAS-II inhibitor with or without exogenous fatty acids; assay type: cell-based, Fusobacterium nucleatum; conditions: fatty acid mixture of Table S2
Procedure: as §2

[2] = test system: F. nucleatum 23726 mutants JR1-JR4; test: MIC against 681-resistant mutants of F. nucleatum 23726; assay type: cell-based, Fusobacterium nucleatum; conditions: for MIC: Fusobacterium nucleatum
Procedure: as §1
Overnight cultures of F. nucleatum 23726 were diluted 1:50 in fresh Columbia broth, which was used to inoculate 96-well plates containing twofold serial dilutions of compound 681. After 48 h of incubation, cultures were recovered from wells one dilution below the MIC, and this was used to establish the inocula for the subsequent passage into 96-well plates containing 681. This process was repeated until cultures grew at 8× the original MIC for two consecutive passages. Cultures were then plated onto Columbia blood agar plates and incubated for 72 h at 37 °C. Single colonies were collected into Columbia broth with 0.39 μg/mL of 681 and cultured for up to 48 h and then plated onto selective Columbia blood agar plates to further purify putative 681-resistant colonies.

CdFabK = test system: CdFabK; parameters: method as in PMID 37224699; conditions: previously reported, cited from earlier work
[3] = test system: F. nucleatum 23726 complementation strains; test: MIC against F. nucleatum 23726 carrying FabK alanine-132 or threonine-132 under the wild-type fabK promoter; assay type: cell-based; conditions: Fusobacterium nucleatum
Procedure: as §3, with “Since the suicide vector expresses GalK, which is toxic in the presence of 2-deoxy-D-galactose (2-DG), the compound 2-DG (0.25% w/v) was added to counter-select for mutants that underwent a second homologous recombination. Ten resulting colonies were then tested for deletion of fabK via PCR, using primers in Table S7. The experiment was independently performed twice for a total of 20 colonies screened for fabK deletion. All experiments were done anaerobically at 37 °C in tryptic soy broth supplemented with 1% w/v peptone and 0.25% w/v autoclaved L-cysteine hydrochloride (TSPC) or TSPC agar with thiamphenicol or 2-DG.” left out
Compounds were twofold serially diluted (100–0.2 μg/mL) across a 96-well plate in 100 μL of media used for the specific organism (Table S4). […] Plates were incubated at 37 °C for up to 48 h, and MICs were read by visual inspection.

With `CS(=O)(=O)c1ccc2nc(NC(=O)NCc3nc(-c4ccc(Br)cc4)c[nH]3)sc2c1` [Compound 681, 1-((4-(4-bromophenyl)-1H-imidazole-2-yl)methyl)-3-(6-(methylsulfonyl)benzo[d]thiazol-2-yl)urea] the “MIC Ef fabI+” value (E. faecalis FA2–2ΔfabK; E. faecalis FA2-2 ΔfabK, possesses only FabI) was 100 µg/mL and >100 µg/mL, the MIC (E. faecalis FA2–2ΔfabK; Enterococcus faecalis, read-out: MIC Ef fabI+, E. faecalis FA2-2 ΔfabK, possesses only FabI) was > 100 µg/mL and the “Increase in biomass (OD600nm) in the presence of inhibitor and exogenous fatty acids” value (S. pyogenes 19615) was 4–5 fold. For the same molecule, the IC50 (FnFabK; IC50 against FnFabK, equivalent concentration, conversion of the μM value) was 1.97 µM, the “Hill coefficient (FnFabK inhibition)” value (FnFabK; four-parameter logistic fit) was 1.01 and the “MIC Ef wild-type” value (E. faecalis FA2–2) was 100 µg/mL and >100 µg/mL. For the same molecule, the MIC (E. faecalis FA2–2; Enterococcus faecalis, read-out: MIC Ef wild-type) was > 100 µg/mL, the “MIC, FabK overexpression, induced” value ([1]; F. nucleatum 23726 pTET-fabK, 62.5 ng/mL ATc) was >100 µg/mL and the MIC ([1]; read-out: MIC, FabK overexpression, induced) was > 100 µg/mL. The MIC ([1]; read-out: MIC, FabK overexpression, uninduced) was 0.8 µg/mL, the MIC ([1]; read-out: MIC, FabX overexpression, induced) was 3.1 µg/mL and the MIC ([1]; read-out: MIC, FabX overexpression, uninduced) was 0.8 µg/mL. For the same molecule, the MIC ([1]; read-out: MIC, empty vector, induced) was 0.4 µg/mL, the MIC ([1]; read-out: MIC, empty vector, uninduced) was 0.8 µg/mL and the “Effect of exogenous fatty acids on growth inhibition of F. nucleatum” value (F. nucleatum 23726) was “did not attenuate; also recorded: did not rescue”. For the same molecule, the “MIC against mutant JR2” value ([2]; 12 bp deletion upstream of fabX) was 3.1 µg/mL (≈ 6.12 µM), the MIC ([2]; read-out: MIC against mutant JR2) was 6.3 µg/mL (≈ 12.4 µM) and the MIC ([2]; read-out: MICs against mutants JR1-JR4) was 3.1 to 12.5 µg/mL (≈ 6.12 to 24.7 µM). For the same molecule, the “MIC against mutant JR3” value ([2]; fabK TSS + 1: C > T) was 3.1 µg/mL, the “IC50 against CdFabK, equivalent concentration” value (CdFabK) was 0.2 µg/mL and the IC50 (CdFabK; read-out: IC50 against CdFabK) was 450 nM. It also gave an MIC ([3]; read-out: MIC, empty vector control) of 0.6 µg/mL, an MIC ([3]; read-out: MIC, threonine-132 FabK mutant) of 2.5 to 5 µg/mL and an MIC ([3]; read-out: MIC, wild-type FabK (alanine-132)) of 1.3 µg/mL.
